US10760052B2, “Method of inhibiting tau phosphorylation” (priority 2012, dated 2020)

Biological target: T1, mu opiate receptor (MOR) (Rattus norvegicus, UniProt P33535)
T1 construct: from tissue; host or cells: striatum (membrane preparation)
Type: biochemical
Settings: for [35S]GTPγS binding, FLNA-Binding Compound as Agonist at 0.1 μM: 0.1 μM compound; for [35S]GTPγS binding, FLNA-Binding Compound as Agonist at 0.1 μM / [35S]GTPγS binding, FLNA-Binding Compound as Agonist at 1 μM: striatal membranes; for [35S]GTPγS binding, FLNA-Binding Compound as Agonist at 0.1 μM / [35S]GTPγS binding, FLNA-Binding Compound as Agonist at 1 μM + BFNA / [35S]GTPγS binding, FLNA-Binding Compound as Agonist at 1 μM: Series C-2; for [35S]GTPγS binding, FLNA-Binding Compound as Agonist at 1 μM + BFNA: 1 μM compound + 1 μM β-FNA (selective MOR antagonist); for [35S]GTPγS binding, FLNA-Binding Compound as Agonist at 1 μM: 1 μM compound; for Concentration of FLNA-Binding Compound as Agonist 0.1 μM / Concentration of FLNA-Binding Compound as Agonist 1 μM / Concentration of FLNA-Binding Compound as Agonist 1 μM + BFNA: [35S]GTPγS binding to Gαo in striatal membranes; for Concentration of FLNA-Binding Compound as Agonist 0.1 μM: compound 0.1 μM; for Concentration of FLNA-Binding Compound as Agonist 1 μM: compound 1 μM; for Concentration of FLNA-Binding Compound as Agonist 1 μM + BFNA: compound 1 μM plus 1 μM β-funaltrexamine (MOR antagonist)
Protocol: To assess the mu opiate receptor (MOR) agonist activity of positive compounds from the FLNA screening, compounds were tested in a [^35S]GTPγS binding assay using striatal membranes. […] This assay measures a functional consequence of receptor occupancy at one of the earliest receptor-mediated events. The assay permits for traditional pharmacological parameters of potency, efficacy and antagonist affinity, with the advantage that agonist measures are not subjected to amplification or other modulation that may occur when analyzing parameters further downstream of the receptor.
Thus, striatal tissue was homogenized in 10 volumes of ice cold 25 mM HEPES buffer, pH 7.4, which contained 1 mM EGTA, 100 mM sucrose, 50 μg/ml leupeptin, 0.04 mM PMSF, 2 μg/ml soybean trypsin inhibitor and 0.2% 2-mercaptoethanol. The homogenates were centrifuged at 800×g for 5 minutes and the supernatants were centrifuged at 49,000×g for 20 minutes.
The resultant striatal membrane preparation (200 μg) was admixed and maintained (incubated) at 30° C. for 5 minutes in reaction buffer as above that additionally contained 1 mM MgCl2 and 0.5 nM [^35S]GTPγS (0.1 μCi/assay, PerkinElmer Life and Analytical Sciences) in a total volume of 250 μl and continued for 5 minutes in the absence or presence of 0.1-10 μM of an assayed compound of interest. The reaction was terminated by dilution with 750 μl of ice-cold reaction buffer that contained 20 mM MgCl2 and 1 mM EGTA and immediate centrifugation at 16,000×g for 5 minutes.
Normal rabbit serum (1 μl) was added to 1 ml of lysate and incubated at 25° C. for 30 minutes. Nonspecific immune complexes were removed by incubation with 25 μl of protein A/G-conjugated agarose beads at 25° C. for 30 minutes followed by centrifugation at 5,000×g at 4° C. for 5 minutes. The supernatant was divided and separately incubated at 25° C. for 30 minutes with antibodies raised against Gαo proteins (1:1,000 dilutions).
The immunocomplexes so formed were collected by incubation at 25° C. for 30 minutes with 40 μl of agarose-conjugated protein A/G beads and centrifugation at 5,000×g at 4° C. for 5 minutes. The pellet was washed and suspended in buffer containing 50 mM Tris-HCl, pH 8.0, and 1% NP-40. The radioactivity in the suspension was determined by liquid scintillation spectrometry.

T1 sequence (P33535 whole entry): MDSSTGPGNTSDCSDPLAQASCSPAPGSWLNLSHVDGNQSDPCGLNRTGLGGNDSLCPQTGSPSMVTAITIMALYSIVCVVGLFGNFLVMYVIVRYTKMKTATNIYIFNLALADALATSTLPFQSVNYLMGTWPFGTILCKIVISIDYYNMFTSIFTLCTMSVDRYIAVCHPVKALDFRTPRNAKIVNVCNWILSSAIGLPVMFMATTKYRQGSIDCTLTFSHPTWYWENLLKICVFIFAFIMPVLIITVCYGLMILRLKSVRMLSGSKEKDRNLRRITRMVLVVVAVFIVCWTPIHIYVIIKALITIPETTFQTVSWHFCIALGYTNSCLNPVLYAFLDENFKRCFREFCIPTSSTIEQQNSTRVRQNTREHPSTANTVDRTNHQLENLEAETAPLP

Structure (SMILES) | % DAMGO (0.1 μM) | % DAMGO (1 μM) | % DAMGO + BFNA | [35S]GTPγS binding, FLNA-Binding Compound as Agonist at 0.1 μM | [35S]GTPγS binding, FLNA-Binding Compound as Agonist at 1 μM + BFNA | [35S]GTPγS binding, FLNA-Binding Compound as Agonist at 1 μM | Concentration of FLNA-Binding Compound as Agonist 0.1 μM | Concentration of FLNA-Binding Compound as Agonist 1 μM | Concentration of FLNA-Binding Compound as Agonist 1 μM + BFNA
CN1CCC2(CC1)NCC(=O)N2Cc1ccccc1 [Compound C0105M] | 104.7% | 88.8% | 150.7% | 198.1% | 73.1% | 220.3% | – | – | –
COc1ccc(S(=O)(=O)N2CCSC23CCNCC3)cc1 [S-C0027] | 74.2% | 84.4% | 98.1% | 156.2% | 56.2% | 286.8% | – | – | –
CC(O)c1ccc(S(=O)(=O)N2CCC3(CC2)OCCN3S(=O)(=O)c2ccc(C(C)O)cc2)cc1 (stereo not drawn) [Compound C0051] | 65.1% | 73.1% | 127.0% | – | – | – | 94.4% | 170.4% | 55.9%
CC1CCC(C(C)C)C(OCC(O)CN2CCN(CCN3CCCCC3)CC2)C1 (stereo not drawn) [Compound A0031] | 100.9% | 116.8% | 573.8% | – | – | – | 178.2% | 297.0% | 150.9%
COc1ccc(S(=O)(=O)N2CCC3(CC2)OCCN3S(=O)(=O)c2ccc(OC)cc2)cc1 [Compound 7866] | 79.3% | 94.8% | 129.5% | – | – | – | 152.3% | 308.2% | 62.4%
CC1CCC(C(C)C)C(OCC(O)CN2CC(C)OC(C)C2)C1 (stereo not drawn) [Compound A0032-1] | 95.5% | 117.6% | 303.8% | – | – | – | 187.4% | 324.5% | 224.5%
COc1c2c(cc3c1C(CC(=O)CCc1ccc(Cl)cc1)[N+](C)(C)CC3)OCO2 (stereo not drawn) [Compound B0017] | 58.9% | 45.6% | 75.2% | – | – | – | 99.6% | 122.0% | 49.6%
O=S(=O)(c1ccc(-c2ccccc2)cc1)N1CCC2(CC1)OCCN2S(=O)(=O)c1ccc(-c2ccccc2)cc1 [Compound C0010] | 80.7% | 114.9% | 135.0% | – | – | – | 136.5% | 307.0% | 89.1%
COc1ccc(OC)c(CCC(=O)CC2c3c(cc4c(c3OC)OCO4)CC[N+]2(C)C)c1 (stereo not drawn) [Compound B0044] | 49.4% | 66.9% | 511.8% | – | – | – | 87.3% | 170.0% | 134.6%
COc1ccc(S(=O)(=O)N2CCCC3(C2)OCCN3S(=O)(=O)c2ccc(OC)cc2)cc1 (stereo not drawn) [Compound C0145M] | 112.2% | 88.7% | 95.3% | – | – | – | 193.0% | 289.2% | 87.0%
CC(=O)c1ccc(S(=O)(=O)N2CCC3(CC2)NCC(=O)N3Cc2ccccc2)cc1 [Compound C0082M] | 113.7% | 107.8% | 181.1% | – | – | – | 228.1% | 338.4% | 97.6%
COc1ccc(C(=O)N2CCOC23CCN(S(=O)(=O)c2ccc(OC)cc2)CC3)cc1 [Compound C0019] | 59.1% | 68.1% | 80.4% | – | – | – | 104.4% | 176.6% | 52.8%
O=S(=O)(c1ccc(Br)cc1)N1CCC2(CC1)OCCN2S(=O)(=O)c1ccc(Br)cc1 [Compound C0025] | 122.6% | 117.5% | 182.7% | – | – | – | 235.7% | 320.7% | 80.2%
COc1ccc(C(=O)CC2c3c(cc4c(c3OC)OCO4)CC[N+]2(C)C)c(O)c1 (stereo not drawn) [Compound B0033] | 77.6% | 69.2% | 95.4% | – | – | – | 149.3% | 188.9% | 41.9%
CC1CCC(C(C)C)C(OCC(O)CN2CCCCCC2)C1 (stereo not drawn) [Compound A0013] | 57.8% | 63.6% | 131.1% | – | – | – | 102.1% | 164.8% | 86.1%
CC(=O)c1ccc(S(=O)(=O)N2CCC3(CC2)NC(=O)C(Cc2cnc[nH]2)N3S(=O)(=O)c2ccc(C(C)=O)cc2)cc1 (stereo not drawn) [Compound C0084M] | 97.3% | 114.9% | 280.4% | – | – | – | 163.1% | 255.5% | 133.2%
O=C(O)c1ccc(C(=O)N2CCC3(CC2)OCCN3S(=O)(=O)c2ccc(C(=O)O)cc2)cc1 [Compound C0021] | 94.5% | 87.8% | 546.4% | – | – | – | 159.7% | 192.0% | 90.7%
COc1ccc(C(=O)CC2c3c(cc4c(c3OC)OCO4)CC[N+]2(C)C)c(F)c1 (stereo not drawn) [Compound B0027] | 82.3% | 100.0% | 41.5% | – | – | – | 140.9% | 266.9% | 21.6%
O=S(=O)(c1ccc(Oc2ccccc2)cc1)N1CCC2(CC1)OCCN2S(=O)(=O)c1ccc(Oc2ccccc2)cc1 [Compound C0149M] | 122.0% | 124.8% | 102.3% | – | – | – | 209.8% | 406.7% | 93.4%
